Measured values published in US9586903B2, “Isoquinoline derivatives” (Hoffmann-La Roche Inc., priority 2013, dated 2017).

Test system: human embryonic stem cell derived neural stem cells (NSCs)
Assay: Neural stem cell proliferation assay (neurogenesis assay, ATP/CellTiterGlo readout)
Assay type: cell-based
Conditions: 4 days incubation
Experimental: Neural Stem Cell Proliferation Assay
Neurogenic properties of small molecules are determined based on the proliferation of human embryonic stem cell derived neural stem cells (NSCs) which were derived via a dual smad inhibition as previously described (Chambers, S. M., et al., Highly efficient neural conversion of human ES and iPS cells by dual inhibition of SMAD signaling, Nature biotechnology, 2009. 27(3): p. 275-80.)
Compounds respond is measured by the increase in cells based on ATP levels (Promega:CellTiterGlo®) after an incubation period of 4 days.
NSCs are thawed and expanded over 3 passages. On the 14th day, NSCs are seeded in Polyornithin/Laminin coated 384 well plates at a cell density of 21′000 cells/cm^2 in a media volume of 38 μl.
4 hours after cell seeding, compound solutions are added at a volume of 2 μl. Stock solutions of the compounds (water, 5% DMSO) are diluted to obtain a dose response (11 points, dilution factor is 2), ranging from 8 μM to 8 nM. Controls are run to consistently determine the neurogenic properties of the cells:
Negative (neutral) control is cell culture Media (final DMSO concentration: 0.25%).
1. cell culture Media+100 ng/ml FGF2 (final DMSO concentration: 0.1%)
2. cell culture Media+20 ng/ml EGF (final DMSO concentration: 0.1%)
3. cell culture Media+100 ng/ml Wnt3a (final DMSO concentration: 0.1%)
After 4 days incubation at 37° C., 5% CO2, the amount of ATP per well is quantified. The ATP concentration is proportional to the cell number. ATP is quantified by using the Promega CellTiterGlo® kit. The CellTiterGlo® reagents contain a cell lysis buffer, a thermo stable luciferase (UltraGlo™ recombinant luciferase), magnesium and luciferin. Luciferin reacts with ATP producing oxyluciferin, AMP and light. The luminescence signal is proportional to the ATP content.
The value of negative (neutral) control is determined for each assay plate by taking the average of 16 negative control wells. The neurogenic compound response is calculated for each compound as (compound/Negative Control)*100.
The values of EC150 from the dose response curve are determined for each test compound. The EC150 is the compound concentration at which 150% activity of control (100%) is reached.

[1] = Homo sapiens, Neural stem cell, 96 h, Table 1, novel compounds, concentration at which 150% activity of control (100%) is reached

Compound	EC (150% of control) [1]	EC (150% of control) (Table 2, known compounds)
COc1ccccc1CNC(=O)c1ccc2cncc(-c3ccc(Cl)cc3)c2c1 [Example 10, 4-(4-Chlorophenyl)-N-(2-methoxybenzyl)isoquinoline-6-carboxamide]	0.09 µM	–
CS(=O)(=O)c1cccc(CNC(=O)c2ccc3cncc(-c4ccc(Cl)cc4)c3c2)c1 [Example 12, 4-(4-Chlorophenyl)-N-(3-(methylsulfonyl)benzyl)isoquinoline-6-carboxamide]	0.1 µM	–
NC(=O)c1ccc2cncc(C3=CCOCC3)c2c1 [Example 29, 4-(3,6-Dihydro-2H-pyran-4-yl)isoquinoline-6-carboxamide]	0.14 µM	–
O=C(NCc1ccccn1)c1ccc2cncc(-c3ccc(Cl)cc3)c2c1 [Example 11, 4-(4-Chlorophenyl)-N-(pyridin-2-ylmethyl)isoquinoline-6-carboxamide]	0.09 µM	–
CN(CC1CC1)C(=O)c1ccc2cncc(-c3ccc(Cl)cc3)c2c1 [Example 21, 4-(4-Chlorophenyl)-N-(cyclopropylmethyl)-N-methylisoquinoline-6-carboxamide]	0.21 µM	–
Cn1cc(NC(=O)c2ccc3cncc(-c4ccc(Cl)cc4)c3c2)cn1 [Example 26, 4-(4-Chlorophenyl)-N-(1-methyl-1H-pyrazol-4-yl)isoquinoline-6-carboxamide]	0.32 µM	–
NC(=O)c1ccc2cncc(-c3ccc(C(F)(F)F)cc3)c2c1 [Example 34, 4-(4-(Trifluoromethyl)phenyl)isoquinoline-6-carboxamide]	–	0.02 µM
O=C(c1ccc2cncc(-c3ccc(Cl)cc3)c2c1)N1CCS(=O)(=O)CC1 [Example 3, [4-(4-Chloro-phenyl)-isoquinolin-6-yl]-(1,1-dioxo-thiomorpholin-4-yl)-methanone]	0.16 µM	–
CC(C)(C)CNC(=O)c1ccc2cncc(-c3ccc(Cl)cc3)c2c1 [Example 4, 4-(4-Chloro-phenyl)-isoquinoline-6-carboxylic acid (2,2-dimethyl-propyl)-amide]	0.19 µM	–
CS(=O)(=O)NNC(=O)c1ccc2cncc(-c3ccc(Cl)cc3)c2c1 [Example 25, N′-(4-(4-Chlorophenyl)isoquinoline-6-carbonyl)methanesulfonohydrazide]	0.02 µM	–
CC1(CNC(=O)c2ccc3cncc(-c4ccc(Cl)cc4)c3c2)CCC(=O)N1 (stereo not shown) [Example 20, 4-(4-Chlorophenyl)-N-((2-methyl-5-oxopyrrolidin-2-yl)methyl)isoquinoline-6-carboxamide]	0.18 µM	–
O=C(NC1CC1)c1ccc2cncc(-c3ccc(Cl)cc3)c2c1 [Example 5, 4-(4-Chlorophenyl)-N-cyclopropylisoquinoline-6-carboxamide]	0.03 µM	–
O=C(Nc1ccccc1)c1ccc2cncc(-c3ccc(Cl)cc3)c2c1 [Example 13, 4-(4-Chlorophenyl)-N-phenylisoquinoline-6-carboxamide]	0.71 µM	–
CC(C)NC(=O)c1ccc2cncc(-c3ccc(Cl)cc3)c2c1 [Example 15, 4-(4-Chlorophenyl)-N-isopropylisoquinoline-6-carboxamide]	0.98 µM	–
O=C(NC1CCOC1)c1ccc2cncc(-c3ccc(Cl)cc3)c2c1 (stereo not shown) [Example 16, 4-(4-Chlorophenyl)-N-(tetrahydrofuran-3-yl)isoquinoline-6-carboxamide]	0.76 µM	–
O=C(c1ccc2cncc(-c3ccc(Cl)cc3)c2c1)N1CCC(O)C1 (stereo not shown) [Example 22, (4-(4-Chlorophenyl)isoquinolin-6-yl)(3-hydroxypyrrolidin-1-yl)methanone]	0.28 µM	–
CS(=O)(=O)CCNC(=O)c1ccc2cncc(-c3ccc(Cl)cc3)c2c1 [Example 7, 4-(4-Chlorophenyl)-N-(2-(methylsulfonyl)ethyl)isoquinoline-6-carboxamide]	0.07 µM	–

Compound	EC (150% of control) [1]	EC (150% of control) (Table 2, known compounds)
O=C(NCc1ccccc1)c1ccc2cncc(-c3ccncc3)c2c1 [Example 1, N-Benzyl-4-(pyridin-4-yl)isoquinoline-6-carboxamide]	0.07 µM	–
O=C(NCCC(F)(F)F)c1ccc2cncc(-c3ccc(Cl)cc3)c2c1 [Example 24, 4-(4-Chlorophenyl)-N-(3,3,3-trifluoropropyl)isoquinoline-6-carboxamide]	0.06 µM	–
CC(C)(CO)NC(=O)c1ccc2cncc(-c3ccc(Cl)cc3)c2c1 [Example 17, 4-(4-Chlorophenyl)-N-(1-hydroxy-2-methylpropan-2-yl)isoquinoline-6-carboxamide]	2.5 µM	–
NC(=O)c1ccc2cncc(-c3ccc(Cl)cc3Cl)c2c1 [Example 31, 4-(2,4-Dichlorophenyl)isoquinoline-6-carboxamide]	0.06 µM	–
N#Cc1ccc(-c2cncc3ccc(C(N)=O)cc23)cc1 [Example 30, 4-(4-Cyanophenyl)isoquinoline-6-carboxamide]	0.03 µM	–
O=C(NCC1CC1)c1ccc2cncc(-c3ccc(Cl)cc3)c2c1 [Example 6, 4-(4-Chlorophenyl)-N-(cyclopropylmethyl)isoquinoline-6-carboxamide]	0.19 µM	–
CN1CCN(C(=O)c2ccc3cncc(-c4ccc(Cl)cc4)c3c2)CC1 [Example 19, (4-(4-Chlorophenyl)isoquinolin-6-yl)(4-methylpiperazin-1-yl)methanone]	0.11 µM	–
NC(=O)c1ccc2cncc(-c3ccc(Cl)cc3)c2c1 [Example 33, 4-(4-Chlorophenyl)isoquinoline-6-carboxamide]	–	0.01 µM
CN(NC(=O)c1ccc2cncc(-c3ccc(Cl)cc3)c2c1)S(C)(=O)=O [Example 28, N′-(4-(4-Chlorophenyl)isoquinoline-6-carbonyl)-N-methylmethanesulfonohydrazide]	0.39 µM	–
CC(C)(C)NC(=O)c1ccc2cncc(-c3ccc(Cl)cc3)c2c1 [Example 23, N-tert-Butyl-4-(4-chlorophenyl)isoquinoline-6-carboxamide]	0.73 µM	–
O=C(c1ccc2cncc(-c3ccc(Cl)cc3)c2c1)N1CCOCC1 [Example 18, (4-(4-Chlorophenyl)isoquinolin-6-yl)(morpholino)methanone]	0.38 µM	–
CC(NC(=O)c1ccc2cncc(-c3ccc(Cl)cc3)c2c1)c1cccc(S(C)(=O)=O)c1 (stereo not shown) [Example 27, 4-(4-Chlorophenyl)-N-(1-(3-(methylsulfonyl)phenyl)ethyl)isoquinoline-6-carboxamide]	0.79 µM	–
O=C(NCC(F)(F)F)c1ccc2cncc(-c3ccc(Cl)cc3)c2c1 [Example 14, 4-(4-Chlorophenyl)-N-(2,2,2-trifluoroethyl)isoquinoline-6-carboxamide]	0.05 µM	–
NC(=O)c1ccc2cncc(-c3ccc(Cl)nc3)c2c1 [Example 32, 4-(6-Chloropyridin-3-yl)isoquinoline-6-carboxamide]	0.02 µM	–
O=C(NCc1ccccc1)c1ccc2cncc(-c3ccc(Cl)cc3)c2c1 [Example 2, N-benzyl-4-(4-chlorophenyl)isoquinoline-6-carboxamide]	0.09 µM	–
CS(=O)(=O)c1ccc(CNC(=O)c2ccc3cncc(-c4ccc(Cl)cc4)c3c2)cc1 [Example 9, 4-(4-chlorophenyl)-N-(4-(methylsulfonyl)benzyl)isoquinoline-6-carboxamide]	0.85 µM	–
O=C(NCc1cccnc1)c1ccc2cncc(-c3ccc(Cl)cc3)c2c1 [Example 8, 4-(4-Chlorophenyl)-N-(pyridin-3-ylmethyl)isoquinoline-6-carboxamide]	0.08 µM	–
